Assay [1] has as its system HT29 colon cancer cells. As to the kind of experiment: In vivo subcutaneous tumor model. As to conditions: 2 mg/kg, 100 μL injection, after 18 days, HT29 subcutaneous tumors in nude mice. On the procedure: Subcutaneous tumor models were established with HT29 colon cancer cells. Nude/nude mice at 8 weeks old were injected with 3×10^6 HT29 cells subcutaneously in the right flank. The tumors were then allowed to grow to a volume of ˜130 mm^3. Once the tumors reached a volume of 130 mm^3 the mice were injected with 100 μL of the desired treatment. For the control group the mice were injected with PBS. For the SK free drug and SK CNA groups the final treatment dose was 7 mg/kg and an injection volume of 100 μL. For SDK free drug and SDK CNA the final treatment dose was 2 mg/kg with an injection volume of 100 μL. Once the mice were treated the tumor volume and body mass were measured for 18 days. The groups were formed with an N=6 mice. The tumor volume was calculated by the formula 0.5(l)×w2.

Assay [2] concerns HT29 cells. As to the kind of experiment: Cell toxicity assay in HT29 cells (resazurin). To be noted: 72 hrs exposure. The format is cell-based. On the procedure:
The in vitro cytotoxic effects of the MTM loaded CNAs (Crosslinked Nano Assemblies) were investigated in comparison to free drugs. HT29 cells were cultured as specified from ATCC at 37° C., 5% CO2. The cells were seeded on a 96 well plate (5,000 cells/well) and allowed to adhere for 24 hrs. After 24 hrs growth media were replaced with fresh media containing drug and CNA samples at differing concentrations. Free drug formulations for SK and SDK and CNA formulations were prepared in filtered DI water. The cells were exposed to samples for 72 hrs total (n=4). Cell viability was assessed using a resazurin assay that indicates mitochondrial metabolic activity in live cells. 10 μL of a 1 mM resazurin (7-Hydroxy-3H-phenoxazin-3-one 10-oxide) solution in PBS was added to the vehicle- and drug-treated cells at the end of the treatment period. Cell viability was determined three hours later by reading the fluorescence at 560 nm (Ex)/590 nm (Em). The fluorescence signals were quantified using a Spectramax® M5 plate reader (Molecular Devices) equipped with a SoftMaxPro® software. Cytotoxicity was determined by calculating the half maximal inhibitory concentration (IC50) of each sample.

For assay [3], the system named is A549 cells. In words: Cell toxicity assay in A549 cells (resazurin). The format is cell-based, human. On the procedure: The cytotoxic effects of four MTM analogue nanoparticulate formulations were investigated in comparison to free drugs. A549 cells were cultured as specified from ATCC at 37° C., 5% CO2. The cells were seeded on a 96 well plate (5,000 cells/well) and allowed to adhere for 24 hrs. After 24 hrs growth media were replaced with fresh media containing samples at differing concentrations. 1% DMSO (biotechnological grade) was used as a control vehicle to prepare free drug formulations for SK and SDK. Self-assembled and cross-linked micelles were used as nanoparticulate formulations for SK and SDK. The cells were exposed to samples for 72 hrs total (n=8). Cell viability was assessed using a resazurin assay that indicates mitochondrial metabolic activity in live cells. 10 μL of a 1 mM resazurin solution in PBS was added to the vehicle- and drug-treated cells at the end of the treatment period. Cell viability was determined three hours later by reading the fluorescence at 560 nm (Ex)/590 nm (Em). The fluorescence signals were quantified using a Spectramax M5 plate reader (Molecular Devices) equipped with a SoftMaxPro software. Cytotoxicity was determined by calculating the half maximal inhibitory concentration (IC50) of each sample.
(Alamar Blue is a resazurin reagent that responds to reducing activity.)

Data on 1 compound can be found in US20130101632A1, “NANOPARTICULATE FORMULATIONS OF MITHRAMYCIN OR MITHRAMYCIN ANALOGUES FOR TREATING CANCER” (UNIVERSITY OF KENTUCKY RESEARCH FOUNDATION, priority 2011, published 2013).

In general, IC50 refers to the midpoint of a concentration-inhibition curve.

As to `CO[C@H](C(=O)C(C)=O)[C@@H]1Cc2cc3cc(OC4C[C@@H](OC5C[C@@H](O)[C@H](O)C(C)O5)[C@H](O)C(C)O4)c(C)c(O)c3c(O)c2C(=O)[C@H]1OC1C[C@@H](OC2C[C@@H](OC3C[C@](C)(O)[C@H](O)C(C)O3)[C@@H](O)C(C)O2)[C@H](O)C(C)O1` (stereo partly shown) [SDK], in assay [1], the “relative tumor regression as compared to the control” value was 48%. In addition, the concentration for half-maximal inhibition (IC50) came to 216 ± 4 nM in assay [2] and 93 ± 35 nM in assay [3] (72 hrs exposure, resazurin assay). Moreover, in assay [3] (relative to free drug = 1.00), the “Relative efficacy to free drug” value was 1.00.
